Experimental data as given in the OPERA property sets (Mansouri et al. 2018).

Question: For `O=C(O)c1ccccc1S(=O)(=O)O`, which melting point is on record?
Answer: 141 °C

Question: What about the ready biodegradability of the same molecule?
Answer: not readily biodegradable

Question: Which boiling point does the source give for `CCOC(=O)C(C(=O)OCC)C(C)C` here?
Answer: 215 °C

Question: With `CCOc1nc(NC)nc(NC(=O)NS(=O)(=O)c2ccccc2C(=O)OC)n1` as the molecule, how does the log10 Koc (L/kg) read?
Answer: 1.93

Question: And the melting point?
Answer: 194 °C

Question: With `C=CCOC=C` as the molecule, how does the boiling point read?
Answer: 66 °C

Question: For `Oc1ccc(Nc2ccc(O)cc2)cc1`, which melting point is on record?
Answer: 174 °C

Question: For `COc1cc2c(c(O)c1OC)CCN(C)[C@H]2C`, which melting point is on record?
Answer: 152 °C

Question: For `N#CCC(N)=C(C#N)C#N`, which melting point is on record?
Answer: 172 °C

Question: For `CC1CC=CC1`, which boiling point is on record?
Answer: 65.7 °C

Question: And the melting point?
Answer: -161 °C

Question: For `O=[N+]([O-])c1c(O)cccc1O`, which melting point is on record?
Answer: 82 °C

Question: What about the ready biodegradability of the same molecule?
Answer: readily biodegradable

Question: For `NNC(=O)CCCCC(=O)NN`, which ready biodegradability is on record?
Answer: not readily biodegradable

Question: With `Cl.NCC(F)(F)F` as the molecule, how does the melting point read?
Answer: 195 °C

Question: Which results are given for `CCCC(CCC)C(=O)O`?
Answer: boiling point: 222 °C; ready biodegradability: readily biodegradable

Question: Which boiling point does the source give for `ClC(Cl)(Cl)I` here?
Answer: 142 °C

Question: And the melting point?
Answer: -7.8 °C

Question: Which melting point does the source give for `CN1C(=O)C(C)(C2=CCCCC2)C(=O)N=C1O` (stereo not given) here?
Answer: 146 °C

Question: Which melting point does the source give for `O=C1C=CC(=O)N1c1ccccc1` here?
Answer: 90.5 °C

Question: Which boiling point does the source give for `CCN(CC)C(=O)CC(C)C` here?
Answer: 211 °C

Question: For `O[C@H](CS)[C@H](O)CS`, which melting point is on record?
Answer: 62.8 °C

Question: Which melting point does the source give for `CCOC(=O)C(NC=O)C(=O)OCC` here?
Answer: 48.5 °C

Question: Which results are given for `CC1(C)CCC(C)(C)C1`?
Answer: boiling point: 118 °C; melting point: -88.4 °C

Question: With `O=S1(=O)CCN(CN2CCS(=O)(=O)NC2)CN1` as the molecule, how does the melting point read?
Answer: 156 °C

Question: For `O=C(Cl)c1ccccc1Br`, which boiling point is on record?
Answer: 243 °C

Question: And the melting point?
Answer: 11 °C

Question: With `N#CCCN(CCOC(=O)c1ccccc1)c1ccc(N=Nc2ccc([N+](=O)[O-])cc2)cc1` as the molecule, how does the ready biodegradability read?
Answer: not readily biodegradable

Question: For `CC(=O)N(CC(O)CO)c1c(I)c(C(=O)NCC(O)CO)c(I)c(C(=O)NCC(O)CO)c1I` (stereo not given), which melting point is on record?
Answer: 177 °C

Question: With `CCCCC(=O)OC(=O)CCCC` as the molecule, how does the boiling point read?
Answer: 227 °C

Question: And the melting point?
Answer: -56.1 °C

Question: With `COc1cc([C@@H]2c3cc4c(c(O)c3C[C@H]3COC(=O)[C@@H]32)OCO4)cc(OC)c1OC` as the molecule, how does the melting point read?
Answer: 234 °C

Question: For `CCOC(CN(CC)CC)OCC`, which boiling point is on record?
Answer: 194 °C

Question: What does the source list for `CC(C)(C)Oc1ccccc1`?
Answer: boiling point: 186 °C; melting point: -24 °C

Question: With `CCOC(=O)C#Cc1ccccc1` as the molecule, how does the boiling point read?
Answer: 265 °C

Question: For `ClC=C(Cl)C(Cl)Cl`, which boiling point is on record?
Answer: 162 °C

Question: Which boiling point does the source give for `CCCCC(C)(C)C(C)C` here?
Answer: 160 °C

Question: For `CCCc1ccccn1`, which boiling point is on record?
Answer: 167 °C

Question: What about the melting point of the same molecule?
Answer: 2 °C

Question: For `CC(C)(c1ccccc1)c1ccc(Nc2ccc(C(C)(C)c3ccccc3)cc2)cc1`, which ready biodegradability is on record?
Answer: not readily biodegradable

Question: With `CC1CCCCCC1=O` (stereo not given) as the molecule, how does the boiling point read?
Answer: 185 °C

Question: With `Clc1cc(Cl)c(-c2c(Cl)c(Cl)cc(Cl)c2Cl)cc1Cl` as the molecule, how does the log10 Koa read?
Answer: 9.87

Question: Which boiling point does the source give for `CC(=O)CC1CCCCN1` (stereo not given) here?
Answer: 195 °C

Question: For `CC1(C)S[C@@H]2[C@H](NC(=O)C3(N)CCCCC3)C(=O)N2[C@H]1C(=O)O`, which melting point is on record?
Answer: 182 °C

Question: For `CCOCCN(Cc1ccc(CN(CCOCC)C(=O)C(Cl)Cl)cc1)C(=O)C(Cl)Cl`, which melting point is on record?
Answer: 140 °C

Question: Which results are given for `CCn1c2ccccc2c2ccccc21`?
Answer: log10 vapour pressure (mmHg): -3.66; melting point: 68 °C

Question: For `CC(=O)Oc1ccc(C(=O)O)cc1`, which melting point is on record?
Answer: 192 °C

Question: For `O=C(C(F)(F)Cl)C(F)(F)Cl`, which boiling point is on record?
Answer: 44.5 °C

Question: For `FC(F)(F)C(Cl)=CCl`, which boiling point is on record?
Answer: 53.7 °C

Question: And the melting point?
Answer: -109 °C

Question: Which results are given for `Brc1cccc2c1Oc1ccccc1O2`?
Answer: log10 vapour pressure (mmHg): -4.58; melting point: 104 °C

Question: What does the source list for `O=C1CCCN1CCO`?
Answer: boiling point: 295 °C; melting point: 20 °C

Question: Which melting point does the source give for `NNc1ccc(Br)cc1` here?
Answer: 108 °C

Question: With `C=CCOC(=O)OCCOCCOC(=O)OCC=C` as the molecule, how does the melting point read?
Answer: -4 °C

Question: What about the ready biodegradability of the same molecule?
Answer: readily biodegradable

Question: What does the source list for `Cc1ccc(C(=O)COc2c(C(=O)c3ccc(Cl)c(C)c3Cl)c(C)nn2C)cc1`?
Answer: log10 vapour pressure (mmHg): -7.01; melting point: 133 °C

Question: With `COCCCNc1nc(NC(C)C)nc(SC)n1` as the molecule, how does the log10 vapour pressure (mmHg) read?
Answer: -6.55

Question: For `COc1c(OC)c(OC(C)=O)c2c(OC)cccc2c1OC(C)=O`, which melting point is on record?
Answer: 69.5 °C

Question: For `C#CCC1(OC(N)=O)CCCCC1`, which melting point is on record?
Answer: 99 °C

Question: For `CCc1cccc(O)c1`, which boiling point is on record?
Answer: 218 °C

Question: What about the log10 Henry constant (atm·m³/mol) of the same molecule?
Answer: -6.2

Question: What about the log10 vapour pressure (mmHg) of the same molecule?
Answer: -1.3

Question: What about the melting point of the same molecule?
Answer: -4 °C

Question: And the ready biodegradability?
Answer: readily biodegradable

Question: With `O=C(O)/C=C/c1ccccc1C(F)(F)F` as the molecule, how does the melting point read?
Answer: 206 °C

Question: Which melting point does the source give for `N#Cc1cc([N+](=O)[O-])c(Cl)c([N+](=O)[O-])c1` here?
Answer: 141 °C

Question: With `CC(C)(C)c1cc(-n2nc3ccc(Cl)cc3n2)c(O)c(C(C)(C)C)c1` as the molecule, how does the ready biodegradability read?
Answer: not readily biodegradable

Question: For `C=CI`, which boiling point is on record?
Answer: 56 °C

Question: What does the source list for `Brc1cccc(Br)c1`?
Answer: boiling point: 218 °C; log10 vapour pressure (mmHg): -0.571; melting point: -7 °C

Question: With `Oc1ccc2[nH]ccc2c1` as the molecule, how does the melting point read?
Answer: 108 °C

Question: Which results are given for `CCCOC(C)=O`?
Answer: boiling point: 102 °C; log10 Henry constant (atm·m³/mol): -3.66; log10 Koa: 3.17; log10 vapour pressure (mmHg): 1.56; melting point: -93 °C; ready biodegradability: readily biodegradable

Question: With `CCCCCCCCCCCCCCCCCC(=O)OCC(O)[C@H]1OC[C@@H](O)[C@@H]1O` (stereo not given in full) as the molecule, how does the ready biodegradability read?
Answer: readily biodegradable

Question: Which boiling point does the source give for `CCOC(=O)C(C)(C)C(=O)OCC` here?
Answer: 197 °C

Question: And the melting point?
Answer: -30.4 °C

Question: For `CCOC(=O)CC(O)(CC(=O)OCC)C(=O)OCC`, which boiling point is on record?
Answer: 294 °C

Question: With `OCc1ccc2ccccc2c1` as the molecule, how does the melting point read?
Answer: 81.3 °C

Question: With `C=CCc1ccc(OC)cc1` as the molecule, how does the boiling point read?
Answer: 216 °C

Question: With `CC(C)(C#N)C(C)(C)C#N` as the molecule, how does the melting point read?
Answer: 170 °C

Question: What does the source list for `Cc1c(N)cccc1Cl`?
Answer: boiling point: 245 °C; melting point: 1 °C

Question: With `O=C(Nc1ccc(Cl)cc1)c1cc(Cl)cc(Cl)c1O` as the molecule, how does the melting point read?
Answer: 142 °C

Question: For `CCC(=O)OCc1ccccc1`, which boiling point is on record?
Answer: 220 °C

Question: Which melting point does the source give for `O=C(Nc1ccccc1Cl)c1ccccc1` here?
Answer: 99 °C

Question: Which melting point does the source give for `CCCCCCCCCCCCCCCCC=O` here?
Answer: 36 °C

Question: With `Cn1c(=O)c2c(ncn2CN2CCOCC2)n(C)c1=O` as the molecule, how does the melting point read?
Answer: 177 °C

Question: With `CCC(CC)COC(=O)CCCCC(=O)OCC(CC)CC` as the molecule, how does the melting point read?
Answer: -15 °C
